The structures appear in SMILES notation.

The results in this text go back to patent publication US6706702B2, “Aryl fused azapolycyclic compounds” (Pfizer Inc., priority 1998, dated 2004).

In general, melting point refers to the temperature, or range, at which the solid turns liquid. With `Cl.FC(F)Oc1ccc2c(c1)CC1CNCC2C1` (stereo not shown), the melting point was in the range of 230 to 234 °C.

As to `Cl.O=[N+]([O-])c1ccc2c(c1)C1CNCC(C2)C1` (stereo not shown), the melting point fell in the range of 215 to 220 °C.

For `Cl.Fc1ccc2c(c1)CC1CC2CN(Cc2ccccc2)C1` (stereo not shown), the melting point was 202 to 203 °C.

Compound `Cl.c1c2c(cc3c1OCO3)C1CNCC(C2)C1` (stereo not shown) yielded a melting point of 241 to 243 °C.

For the compound `COc1cccc2c1CC1CNCC2C1.Cl` (stereo not shown), the melting point lay within 272 to 274 °C.

Regarding `Cl.c1cncc(-c2ccc3c(c2)CC2CNCC3C2)c1` (stereo not shown), the melting point is 240 to 242 °C.

On to `COc1ccc2c(c1)CC1CNCC2C1.Cl` (stereo not shown), for which the melting point lay within 253.5 to 258 °C.
